Test results as given in patent publication US10448639B2, “Fungicidal pyrazoles” (FMC CORPORATION, priority 2009, dated 2019).
Marks after values point to notes of the source that are not given here.

Columns and labels:
[1] = system: Puccinia recondita f. sp. tritici; assay: Test H: wheat leaf rust, curative spray on inoculated wheat seedlings, visual disease rating
Septoria tritici = assay: Test G: wheat leaf blotch, preventive spray on wheat seedlings, visual disease rating
[2] = system: Puccinia recondita f. sp. tritici; assay: Test I: wheat leaf rust, preventive spray on wheat seedlings, visual disease rating
Botrytis cinerea = assay: Test B: tomato Botrytis, preventive spray on tomato seedlings, visual disease rating
Septoria nodorum = assay: Test F: Septoria glume blotch, preventive spray on wheat seedlings, visual disease rating
[3] = system: Erysiphe graminis f sp. tritici; assay: Test J: wheat powdery mildew, preventive spray on wheat seedlings, visual disease rating
Alternaria solani = assay: Test C: tomato early blight, preventive spray on tomato seedlings, visual disease rating
[4] = wheat leaf rust, curative, 100 = 100% disease control, 0 = no control relative to controls
[5] = wheat leaf blotch, 100 = 100% disease control, 0 = no control relative to controls
[6] = wheat leaf rust, preventive, 100 = 100% disease control, 0 = no control relative to controls
[7] = tomato Botrytis, 100 = 100% disease control, 0 = no control relative to controls
[8] = Septoria glume blotch, 100 = 100% disease control, 0 = no control relative to controls
[9] = wheat powdery mildew, 100 = 100% disease control, 0 = no control relative to controls
[10] = tomato early blight, 100 = 100% disease control, 0 = no control relative to controls
[11] = wheat leaf rust, curative spray, 100 = 100% disease control, 0 = no control
[12] = wheat leaf blotch, preventive spray, 100 = 100% disease control, 0 = no control
[13] = wheat leaf rust, preventive spray, 100 = 100% disease control, 0 = no control
[14] = tomato Botrytis, preventive spray, 100 = 100% disease control, 0 = no control
[15] = Septoria glume blotch on wheat, preventive spray, 100 = 100% disease control, 0 = no control
[16] = wheat powdery mildew, preventive spray, 100 = 100% disease control, 0 = no control
[17] = tomato early blight, preventive spray, 100 = 100% disease control, 0 = no control

Structure (SMILES) | Test H rating (% disease control) [1, 4] [%] | Test G rating (% disease control) (Septoria tritici; [5]) [%] | Test I rating (% disease control) [2, 6] [%] | Test B rating (% disease control) (Botrytis cinerea; [7]) [%] | Test F rating (% disease control) (Septoria nodorum; [8]) [%] | Test J rating (% disease control) [3, 9] [%] | Test C rating (% disease control) (Alternaria solani; [10]) [%] | Test H rating (% disease control) [1, 11] [%] | Test G rating (% disease control) (Septoria tritici; [12]) [%] | Test I rating (% disease control) [2, 13] [%] | Test B rating (% disease control) (Botrytis cinerea; [14]) [%] | Test F rating (% disease control) (Septoria nodorum; [15]) [%] | Test J rating (% disease control) [3, 16] [%] | Test C rating (% disease control) (Alternaria solani; [17]) [%] | other results
Cc1nn(C)c(Nc2ccc(F)cc2F)c1-c1ccc(F)cc1F [compound 230] | 0 | 100 | 97 | 99 | 0 | 100 | 99 |  |  |  |  |  |  |  | 
COc1cccc(Nc2c(-c3c(F)cccc3F)c(C)nn2C)c1 [compound 200] | 0 | 97 | 0 | 82 | 0 | 94 | 0 |  |  |  |  |  |  |  | 
Cc1nn(C)c(Nc2ccc(F)cc2Cl)c1-c1ccc(F)cc1Br [compound 314] |  |  |  |  |  |  |  |  |  |  |  |  |  |  | Test H disease control rating ([1]; wheat leaf rust, sprayed after inoculation, 100 = 100% disease control, 0 = no disease control relative to controls): 94%; Test G disease control rating (Septoria tritici; wheat leaf blotch, sprayed the day before inoculation, 100 = 100% disease control, 0 = no disease control relative to controls): 100%; Test I disease control rating ([2]; wheat leaf rust, sprayed the day before inoculation, 100 = 100% disease control, 0 = no disease control relative to controls): 100%; Test B disease control rating (Botrytis cinerea; tomato Botrytis, 100 = 100% disease control, 0 = no disease control relative to controls): 100%; Test F disease control rating (Septoria nodorum; Septoria glume blotch on wheat, 100 = 100% disease control, 0 = no disease control relative to controls): 0%; Test J disease control rating ([3]; wheat powdery mildew, sprayed the day before inoculation, 100 = 100% disease control, 0 = no disease control relative to controls): 100%; Test C disease control rating (Alternaria solani; tomato early blight, 100 = 100% disease control, 0 = no disease control relative to controls): 95%
COc1cc(F)c(-c2c(C)nn(C)c2Nc2ccc(OC)nc2)c(F)c1 [compound 95] |  |  |  |  |  |  |  | 0 | 97 | 0 | 99 | 0 | 0 | 16 | 
COc1ccc(Nc2c(-c3c(F)cccc3F)c(C)nn2C)c(F)c1 [compound 180] | 0 | 98 | 68 | 100 | 0 | 100 | 99 |  |  |  |  |  |  |  | 
COc1ccc(Nc2c(-c3c(F)cc(F)cc3F)c(C)nn2C)cc1OC [compound 93] |  |  |  |  |  |  |  | 0 | 77 | 9 | 41 | 0 | 0 | 0 | 
COc1ccc(Oc2c(-c3ccc(C)cc3)c(C)nn2C)c(Cl)c1 [compound 55] |  |  |  |  |  |  |  | 0 | 98 | 41 | 6 | 0 | 73 | 0 | 
Cc1nn(C)c(Oc2c(F)cc(C#N)cc2F)c1-c1ccccc1Cl [compound 271] | 0 | 100 | 99 | 100 | 99 | 98 | 99 |  |  |  |  |  |  |  | 
COc1cc(F)c(-c2c(C)nn(C)c2Nc2ccc(F)cc2C)c(F)c1 [compound 88] |  |  |  |  |  |  |  | 95 | 98 | 99 | 100 | 99 | 100 | 100 | 
Cc1nn(C)c(Nc2cc(F)ccc2F)c1-c1ccc(F)cc1Cl [compound 173] | 0 | 98 | 83 | 100 | 0 | 100 | 86 |  |  |  |  |  |  |  | 
COc1cc(F)c(Nc2c(-c3ccc(F)cc3Cl)c(C)nn2C)c(F)c1 [Compound 17, 4-(2-Chloro-4-fluorophenyl)-N-(2,6-difluoro-4-methoxyphenyl)-1,3-dimethyl-1H-pyrazol-5-amine] |  |  |  |  |  |  |  |  |  |  |  |  |  |  | pest or weed control at 200 µg/mL ([1]; 144 h, read-out: Test H rating (% disease control)): 96%; pest or weed control at 200 µg/mL (Septoria tritici; Zymoseptoria tritici, in Triticum aestivum, 504 h, read-out: Test G rating (% disease control)): 97%; pest or weed control at 200 µg/mL ([2]; 192 h, read-out: Test I rating (% disease control)): 100%; pest or weed control at 200 µg/mL (Botrytis cinerea; Botrytis cinerea, in Solanum lycopersicum, 120 h, read-out: Test B rating (% disease control)): 100%; pest or weed control at 200 µg/mL (Septoria nodorum; Parastagonospora nodorum, in Triticum aestivum, 192 h, read-out: Test F rating (% disease control)): 93%; pest or weed control at 200 µg/mL ([3]; Blumeria graminis, in Triticum aestivum, 192 h, read-out: Test J rating (% disease control)): 100%; pest or weed control at 200 µg/mL (Alternaria solani; Alternaria solani, in Solanum lycopersicum, 168 h, read-out: Test C rating (% disease control)): 100%
Cc1nn(C)c(Nc2c(F)cc(F)cc2F)c1-c1ccccc1C(F)(F)F [compound 239] | 0 | 67 | 68 | 99 | 0 | 100 | 95 |  |  |  |  |  |  |  | 
Cc1nn(C)c(Nc2ccc(F)cc2Cl)c1-c1c(F)cccc1C(F)(F)F [compound 253] | 0 | 0 | 0 | 99 | 0 | 76 | 0 |  |  |  |  |  |  |  | 
Cc1nn(C)c(Nc2ccc(C#N)cc2F)c1-c1c(F)cccc1F [compound 196] | 9 | 100 | 98 | 99 | 73 | 98 | 94 |  |  |  |  |  |  |  | 
Cc1nn(C)c(Oc2ccc(F)cc2[N+](=O)[O-])c1-c1ccc(F)cc1Cl [compound 122] |  |  |  |  |  |  |  | 11 | 0 | 0 | 0 | 0 | 0 | 0 | 
CC(=O)Nc1ccc(Oc2c(-c3ccc(F)cc3Cl)c(C)nn2C)c(F)c1 [compound 71] |  |  |  |  |  |  |  | 0 | 96 | 91 | 93 | 0 | 67 | 0 | 
Cc1nn(C)c(Oc2cc(C#N)c(C#N)cc2Cl)c1-c1ccc(F)cc1Cl [compound 150] | 0 | 7 | 74 | 19 | 60 | 50 | 0 |  |  |  |  |  |  |  | 
Cc1nn(C)c(Oc2c(F)cc(C#N)cc2F)c1-c1c(F)cc(F)cc1F [compound 31] |  |  |  |  |  |  |  |  |  |  |  |  |  |  | Test H rating (% disease control), value marked * ([1]; wheat leaf rust, curative spray, rating marked with asterisk (different test condition, key not given)): 15* %; Test G rating (% disease control), value marked * (Septoria tritici; wheat leaf blotch, preventive spray, rating marked with asterisk (different test condition, key not given)): 47* %; Test I rating (% disease control), value marked * ([2]; wheat leaf rust, preventive spray, rating marked with asterisk (different test condition, key not given)): 79* %; Test B rating (% disease control), value marked * (Botrytis cinerea; tomato Botrytis, preventive spray, rating marked with asterisk (different test condition, key not given)): 99* %; Test F rating (% disease control), value marked * (Septoria nodorum; Septoria glume blotch, preventive spray, rating marked with asterisk (different test condition, key not given)): 0* %; Test J rating (% disease control), value marked * ([3]; wheat powdery mildew, preventive spray, rating marked with asterisk (different test condition, key not given)): 60* %; Test C rating (% disease control), value marked * (Alternaria solani; tomato early blight, preventive spray, rating marked with asterisk (different test condition, key not given)): 98* %
Cc1nn(C)c(Nc2ccc(F)cc2F)c1-c1c(F)cccc1C(F)(F)F [compound 255] | 0 | 0 | 0 | 100 | 0 | 39 | 0 |  |  |  |  |  |  |  | 
COc1cc(F)c(-c2c(C)nn(C)c2Nc2ccc(Cl)c(F)c2)c(F)c1 [compound 49] |  |  |  |  |  |  |  | 0 | 99 | 89 | 100 | 35 | 79 | 17 | 
